Experimental data published in patent US4497809A, “Cephalosporin derivatives” (Takeda Chemical Industries, Ltd., priority 1982, dated 1985).

Legend:
in vivo = test: in vivo; design: species or system mouse (male SLC-ICR mice); settings: mouse; for Bioavailability / AUC (area under plasma-concentration curve of non-ester form, 0 to 2 hr): 100 mg/kg; for AUC (area under plasma-concentration curve of non-ester form, 0 to 2 hr): po
Procedure: Test compounds: compounds obtained in examples 6, 8, 10, 13, 14, 16, 21, 23 and compound for control: pivaloyloxymethyl 7β-[2-(2-aminothiazol-4-yl)acetamido]-3-[[[1-(2-dimethylaminoethyl)-1H-tetrazol-5-yl]thio]methyl]-ceph-3-em-4-carboxylate (This will be referred to simply "compound A" hereinafter).
Male SLC-ICR mice (4 weeks old) were starved but under free access to drinking water for 16-18 hr. period to the experiments. The test compound was administered orally by intubation as an aqueous solution with 2.5 equimolar of tartaric acid at a dose of 100 mg/kg as non-ester form of the Compound I, to a group of four mice. […] The concentration of the non-ester form of the Compound I in the plasma was measured by the cylinder-plate method using Proteus mirabilis ATCC 21100 as an assay organism.
Control test: an aqueous solution of non-ester form of the Compound I in an amount of 10 ml water/Kg mouse body weight, was subcutaneously applied and AUC was calculated in the same manner as above.
Area under plasma-concentration curve (AUC) for 0 to 2 hr. after
administration was calculated by the trapezoidal rule.

[1] = system: gram-positive bacteria (e.g., Staphylococcus aureus); test: Antibacterial activity against gram-positive bacteria; assay type: cell-based; settings: in words
[2] = system: gram-negative bacteria (e.g., Escherichia coli, Klebsiella pneumonia, Proteus vulgaris, Proteus mirabilis, Proteus morganii); test: Antibacterial activity against gram-negative bacteria; assay type: cell-based; settings: in words

Question: For CN(C)CCn1nnnc1SCC1=C(C(=O)OCOC(=O)C(C)(C)C)N2C(=O)[C@@H](NC(=O)Cc3csc(N)n3)[C@H]2SC1 [Compound A, pivaloyloxymethyl 7β-[2-(2-aminothiazol-4-yl)acetamido]-3-[[[1-(2-dimethylaminoethyl)-1H-tetrazol-5-yl]thio]methyl]-ceph-3-em-4-carboxylate, reference compound], which Bioavailability (in vivo; 120 min) is on record?
Answer: 41.8%

Question: For CCCCCC(=O)OC(C)OC(=O)C1=C(CSc2nnnn2CCN(C)C)CS[C@@H]2[C@H](NC(=O)Cc3csc(N)n3)C(=O)N12 (stereo partly drawn) [Example 6, 1-(n-hexanoyloxy)ethyl 7β-[2-(2-aminoethiazol-4-yl)acetamido]-3-[[[1-(2-dimethylaminoethyl)-1H-tetrazol-5-yl]thio]methyl]ceph-3-em-4-carboxylate], which Bioavailability (in vivo; 120 min) is on record?
Answer: 67.5%

Question: And the “AUC (area under plasma-concentration curve of non-ester form, 0 to 2 hr)” value (in vivo; 120 min)?
Answer: 26200 ng·h/mL

Question: Which results are given for CC(C)CCC(=O)OC(C)OC(=O)C1=C(CSc2nnnn2CCN(C)C)CS[C@@H]2[C@H](NC(=O)Cc3csc(N)n3)C(=O)N12 (stereo partly drawn) [Example 8, 1-(4-methylpentanoyloxy)ethyl 7β-[2-(2-aminothiazol-4-yl)acetamido]-3-[[[1-(2-dimethylaminoethyl)-1H-tetrazol-5-yl]thio]methyl]ceph-3-em-4-carboxylate]?
Answer: Bioavailability (in vivo; 120 min): 52.8%; AUC (area under plasma-concentration curve of non-ester form, 0 to 2 hr) (in vivo; 120 min): 20500 ng·h/mL

Question: Which Bioavailability (in vivo; 120 min) does the source give for CCC(C)CC(=O)OC(C)OC(=O)C1=C(CSc2nnnn2CCN(C)C)CS[C@@H]2[C@H](NC(=O)Cc3csc(N)n3)C(=O)N12 (stereo partly drawn) [Example 10, 1-(3-methylpentanoyloxy)ethyl 7β-[2-(2-aminothiazol-4-yl)acetamido]-3-[[[1-(2-dimethylaminoethyl)-1H-tetrazol-5-yl]-thio]methyl]ceph-3-em-4-carboxylate] here?
Answer: 93.2%

Question: And the “AUC (area under plasma-concentration curve of non-ester form, 0 to 2 hr)” value (in vivo; 120 min)?
Answer: 36200 ng·h/mL

Question: With CCCCCCCC(=O)OC(C)OC(=O)C1=C(CSc2nnnn2CCN(C)C)CS[C@@H]2[C@H](NC(=O)Cc3csc(N)n3)C(=O)N12 (stereo partly drawn) [Example 13, 1-(n-octanoyloxy)ethyl 7β-[2-(2-aminothiazol-4-yl)acetamido]-3-[[[1-(2-dimethylaminoethyl)-1H-tetrazol-5-yl]thio]methyl]ceph-3-em-4-carboxylate] as the molecule, how does the Bioavailability (in vivo; 120 min) read?
Answer: 60.6%

Question: What about the “AUC (area under plasma-concentration curve of non-ester form, 0 to 2 hr)” value (in vivo; 120 min) of the same molecule?
Answer: 23500 ng·h/mL

Question: For CCCC(CCC)C(=O)OC(C)OC(=O)C1=C(CSc2nnnn2CCN(C)C)CS[C@@H]2[C@H](NC(=O)Cc3csc(N)n3)C(=O)N12 (stereo partly drawn) [Example 14, 1-(2-n-propylpentanoyloxy)ethyl 7β-[2-(2-aminothiazol-4-yl)acetamido]-3-[[[1-(2-dimethylaminoethyl)-1H-tetrazol-5-yl)thio]methyl]ceph-3-em-4-carboxylate], which Bioavailability (in vivo; 120 min) is on record?
Answer: 66.0%

Question: And the “AUC (area under plasma-concentration curve of non-ester form, 0 to 2 hr)” value (in vivo; 120 min)?
Answer: 25600 ng·h/mL

Question: What does the source list for CCCCCC(=O)OC(CC)OC(=O)C1=C(CSc2nnnn2CCN(C)C)CS[C@@H]2[C@H](NC(=O)Cc3csc(N)n3)C(=O)N12 (stereo partly drawn) [Example 16, 1-(n-hexanoyloxy)propyl 7β-[2-(2-aminothiazol-4-yl)acetamido]-3-[[[1-(2-dimethylaminoethyl)-1H-tetrazol-5-yl]thio]methyl]ceph-3-em-4-carboxylate]?
Answer: Bioavailability (in vivo; 120 min): 65.0%; AUC (area under plasma-concentration curve of non-ester form, 0 to 2 hr) (in vivo; 120 min): 25200 ng·h/mL

Question: With CCC(CC)C(=O)OC(C)OC(=O)C1=C(CSc2nnnn2CCN(C)C)CS[C@@H]2[C@H](NC(=O)Cc3csc(N)n3)C(=O)N12 (stereo partly drawn) [Example 21, 1-(2-ethylbutyryloxy)ethyl 7β-[2-(2-aminothiazol-4-yl)acetamido]-3-[[[1-(2-dimethylaminoethyl)-1H-tetrazol-5-yl]thio]methyl]ceph-3-em-4-carboxylate] as the molecule, how does the Bioavailability (in vivo; 120 min) read?
Answer: 100.0%

Question: What about the “AUC (area under plasma-concentration curve of non-ester form, 0 to 2 hr)” value (in vivo; 120 min) of the same molecule?
Answer: 38800 ng·h/mL

Question: Which results are given for CCC(CC)CC(=O)OC(C)OC(=O)C1=C(CSc2nnnn2CCN(C)C)CS[C@@H]2[C@H](NC(=O)Cc3csc(N)n3)C(=O)N12 (stereo partly drawn) [Example 23, 1-(3-ethylpentanoyloxy)ethyl 7β-[2-(2-aminothiazol-4-yl)acetamido]-3-[[[1-(2-dimethylaminoethyl)-1H-tetrazol-5-yl]thio]methyl]ceph-3-em-4-carboxylate]?
Answer: Bioavailability (in vivo; 120 min): 78.2%; AUC (area under plasma-concentration curve of non-ester form, 0 to 2 hr) (in vivo; 120 min): 30300 ng·h/mL

Question: For CN(C)CCn1nnnc1SCC1=C(C(=O)O)N2C(=O)[C@@H](NC(=O)Cc3csc(N)n3)[C@H]2SC1 [non-ester form of Compound I, 7β-[2-(2-aminothiazol-4-yl)acetamido]-3-[[[1-(2-dimethylaminoethyl)-1H-tetrazol-5-yl]thio]methyl]ceph-3-em-4-carboxylic acid, reference compound], which AUC at 2 h (in vivo; sc) is on record?
Answer: 38800 ng·h/mL

Question: And the “Bioavailability, control” value (in vivo; sc, 120 min)?
Answer: 100%

Question: What about the “antibacterial activity against gram-positive bacteria” value [1] of the same molecule?
Answer: excellent antibacterial activity

Question: What about the “antibacterial activity against gram-negative bacteria” value [2] of the same molecule?
Answer: excellent antibacterial activity
